# Experimental data reported in ChEMBL document CHEMBL1201862, “PubChem BioAssay data set” (2004).
#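 Dose response: 5 concentrations. Exposure: 48 h. Format: 96-well plates. Endpoint: linear interpolation; highest concentration if not reached. GI50: concentration for 50% inhibition of growth.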 Calls of active or inactive are those of the source. Rule as the data show it: active = GI50 up to about 1.1 µM and inactive = higher.
# Assays:
# Assay in all cases: growth of human tumour cells (NCI), 48 h
# DMS-273 = system: DMS-273
# KM-20L2 = system: KM-20L2
# DMS-114 = system: DMS-114
# M19-MEL = system: M19-MEL
# XF498 = system: XF498
# LXFL 529 = system: LXFL 529
# RXF 631 = system: RXF 631
# HOP-18 = system: HOP-18
# Hs-578T = system: Hs-578T
Compound,GI50 (DMS-273),GI50 (KM-20L2),GI50 (DMS-114),GI50 (M19-MEL),GI50 (XF498),GI50 (LXFL 529),GI50 (RXF 631),GI50 (HOP-18),GI50 (Hs-578T)
CC(=O)C1(O)CC2(c3ccccc3)C(=O)C1(c1ccccc1)C(c1ccccc1)=C2c1ccccc1 (centres undefined),44.3 µM (inactive),> 100 µM (inactive),10.9 µM (inactive),> 100 µM (inactive),6.24 µM (inactive),> 100 µM (inactive),89.1 µM (inactive),–,–
COc1ccc(OC)c(/C(C)=N/NC(N)=S)c1,> 100 µM (inactive),> 100 µM (inactive),> 100 µM (inactive),> 100 µM (inactive),> 100 µM (inactive),> 100 µM (inactive),–,> 100 µM (inactive),–
CC(C)C1CC[C@@H](C)C[C@@]1(O)CC(N)=O (some centres undefined),> 100 µM (inactive),> 100 µM (inactive),> 100 µM (inactive),> 100 µM (inactive),0.0344 µM (active),> 100 µM (inactive),> 100 µM (inactive),> 100 µM (inactive),–
COC(=O)C1CC2c3c(c4ccccc4n3C)CC(C1=O)N2C (centres undefined),20.2 µM (inactive),39.8 µM (inactive),21.2 µM (inactive),49.3 µM (inactive),–,39 µM (inactive),63.4 µM (inactive),40 µM (inactive),–
COc1cc(C(=O)C(CO)Oc2ccccc2OC)ccc1O (centres undefined),> 100 µM (inactive),> 100 µM (inactive),> 100 µM (inactive),> 100 µM (inactive),–,> 100 µM (inactive),> 100 µM (inactive),> 100 µM (inactive),–
CC(C)N1CN(C(C(=O)N[C@@H]2C(=O)N3C2SC(C)(C)C3C(=O)O)c2ccc(O)cc2)CSC1=S (some centres undefined),> 100 µM (inactive),> 100 µM (inactive),> 100 µM (inactive),> 100 µM (inactive),> 100 µM (inactive),> 100 µM (inactive),–,> 100 µM (inactive),–
N=C(N)NS(=O)(=O)c1ccc(Nc2c3ccccc3nc3c(C(=O)Nc4ccc(S(N)(=O)=O)cc4)ccc(Cl)c23)cc1,> 100 µM (inactive),> 100 µM (inactive),> 100 µM (inactive),> 100 µM (inactive),> 100 µM (inactive),> 100 µM (inactive),> 100 µM (inactive),> 100 µM (inactive),–
N#CCC(=O)N1CCCOCCC1,> 100 µM (inactive),> 100 µM (inactive),> 100 µM (inactive),> 100 µM (inactive),–,> 100 µM (inactive),> 100 µM (inactive),–,–
CC(C)(C)C(=C[S+]([O-])/N=C/c1ccccc1)C(C)(C)C (centres undefined),32.3 µM (inactive),52.8 µM (inactive),28.1 µM (inactive),36.1 µM (inactive),23 µM (inactive),28.4 µM (inactive),38.6 µM (inactive),–,–
CCC1C(C)c2c([nH]c3ccccc23)C2C(=O)N(c3ccccc3)C(=O)C21 (centres undefined),17.8 µM (inactive),–,13.4 µM (inactive),15.8 µM (inactive),21.5 µM (inactive),19.6 µM (inactive),13.5 µM (inactive),–,–
CC1=NC2(C(=O)O)C3(C(=O)O)N=C(C)OC3(C(F)(F)F)C2(C(F)(F)F)O1 (centres undefined),> 100 µM (inactive),> 100 µM (inactive),> 100 µM (inactive),> 100 µM (inactive),> 100 µM (inactive),–,–,> 100 µM (inactive),–
COc1ccc(-c2cc(=O)c3cc(O)ccc3o2)c(OC)c1OC,–,19.3 µM (inactive),27.9 µM (inactive),45.3 µM (inactive),30.5 µM (inactive),30.6 µM (inactive),33.2 µM (inactive),–,–
C#Cc1c(C)c(/C=C/C(C)=C/C(=O)OC)n(C)c1C,88.7 µM (inactive),87.7 µM (inactive),36.1 µM (inactive),> 100 µM (inactive),77.3 µM (inactive),99.8 µM (inactive),–,> 100 µM (inactive),–
Cc1ccc(NC(=O)C(=O)CC(=O)c2ccccc2)cc1C,56.8 µM (inactive),> 100 µM (inactive),86.9 µM (inactive),> 100 µM (inactive),> 100 µM (inactive),76.9 µM (inactive),–,> 100 µM (inactive),–
COC1=CC(=O)c2c(O)c3c(c(O)c2C1=O)C[C@](C)(O)C[C@@H]3O,1.57 µM (inactive),> 100 µM (inactive),1.46 µM (inactive),0.296 µM (active),2.86 µM (inactive),3.81 µM (inactive),1.95 µM (inactive),–,18.2 µM (inactive)
CC1C2C=C(O)C(=O)C(C2=O)C1c1ccccc1 (centres undefined),> 100 µM (inactive),38.6 µM (inactive),–,> 100 µM (inactive),–,> 100 µM (inactive),> 100 µM (inactive),–,–
Cc1ccccc1-n1c(N)c(-c2nc3ccccc3[nH]2)sc1=S,18.9 µM (inactive),–,24.2 µM (inactive),23.3 µM (inactive),–,22.1 µM (inactive),24.9 µM (inactive),30.2 µM (inactive),–
O=C(CC(=O)N1N=C(n2ccc3ccccc32)CC1c1ccccc1)Nc1ccccc1Cl (centres undefined),> 100 µM (inactive),> 100 µM (inactive),> 100 µM (inactive),> 100 µM (inactive),–,> 100 µM (inactive),> 100 µM (inactive),> 100 µM (inactive),–
COc1ccc(/N=C\c2ccc(N(CCC#N)CCC#N)cc2)cc1,31.4 µM (inactive),9.68 µM (inactive),27.5 µM (inactive),34.1 µM (inactive),> 100 µM (inactive),7.11 µM (inactive),–,> 100 µM (inactive),> 100 µM (inactive)
CN1CCCCC(C(O)(c2ccccc2)c2ccccc2)C1=O (centres undefined),44.1 µM (inactive),> 100 µM (inactive),86.1 µM (inactive),> 100 µM (inactive),> 100 µM (inactive),81.7 µM (inactive),42.4 µM (inactive),> 100 µM (inactive),–
CC(C)c1cc(C(C)C)c(S(=O)(=O)N=[N+]=[N-])c(C(C)C)c1,94 µM (inactive),> 100 µM (inactive),–,34.9 µM (inactive),> 100 µM (inactive),> 100 µM (inactive),59.8 µM (inactive),–,–
